Key:
[1] = test system: PBMC; test: MTT assay, peripheral blood mononuclear cells; assay type: cell-based, human; conditions: 72 h
Procedure: (§1) The colorimetric MTT (3-(4,5-dimethylthiazol-2-yl)-2,5-diphenyltetrazolium bromide) assay was used to measure the cell viability of all of the above cell lines following treatment with target hybrids. Exponentially growing cells were added into 96-well plates at a concentration of 2000–4000 cells per well. Following attachment the cells were treated with varying concentrations (64, 16, 4, 1, 0.25, 0.0625 and 0.015625 µM) of target compounds in media and were kept for incubation for 72 h. MTT (20 µL, 5 mg/mL in PBS) was added to each well and the cells were incubated for another 3 h at 37 °C. Then the medium was removed, followed by the addition of 150 µL DMSO for each well. After that, the absorbance (OD) data of each well at 570 nm wavelength were measured by a Microplate Reader (BIO-RAD), and half inhibition rates (IC50) were calculated[59]^,[60].

[2] = test system: HepG2; test: MTT antiproliferative assay, HepG2; assay type: cell-based, human; conditions: 72 h, hepatoma HepG2
Procedure: as §1

[3] = test system: L-02; test: MTT assay, normal hepatic L-02 cell line; assay type: cell-based; conditions: human normal hepatic L-02 cell line
Procedure: as §1

[4] = test system: HCT-116; test: MTT antiproliferative assay, HCT-116; assay type: cell-based, human; conditions: 72 h, colorectal carcinoma HCT-116
Procedure: as §1

[5] = test system: MCF-7; test: MTT antiproliferative assay, MCF-7; assay type: cell-based, human; conditions: breast carcinoma MCF-7
Procedure: as §1

[6] = test system: K562; test: MTT antiproliferative assay, K562; assay type: cell-based, human; conditions: 72 h, chronic myeloid leukaemia K562
Procedure: as §1

[7] = test system: B16; test: MTT antiproliferative assay, B16; assay type: cell-based; conditions: 72 h, melanoma B16
Procedure: as §1

Molecule | IC50 [2] | IC50 [4] | IC50 ([5]; 72 h) | IC50 [6] | IC50 [7] | IC50 ([2]; Homo sapiens) | IC50 ([4]; Homo sapiens) | IC50 ([5]; Homo sapiens, MCF7, 72 h) | IC50 ([6]; Homo sapiens) | IC50 [1] | IC50 ([3]; 72 h) | IC50 ([1]; Homo sapiens, PBMC) | IC50 ([3]; L02, 72 h)
CC(CN)Oc1no[n+]([O-])c1S(=O)(=O)c1ccccc1 (stereo not shown) [5c, 4-((1-aminopropan-2-yl)oxy)-3-(phenylsulfonyl)-1,2,5-oxadiazole-2-oxide] |  |  |  |  | > 50 µM | > 50 µM | > 50 µM | > 50 µM | > 50 µM |  |  | > 50 µM | > 50 µM
NCCCOc1no[n+]([O-])c1S(=O)(=O)c1ccccc1 [5b, 4-(3-aminopropoxy)-3-(phenylsulfonyl)-1,2,5-oxadiazole-2-oxide] |  |  |  |  | 22.9 ± 1.46 µM | 17.8 ± 1.43 µM | 18.9 ± 1.67 µM | > 50 µM | 20.3 ± 1.88 µM |  |  | > 50 µM | > 50 µM
COc1ccc2occ(C(=O)O)c(=O)c2c1 [compound 11] |  |  |  |  | > 50 µM | > 50 µM | > 50 µM | > 50 µM | > 50 µM |  |  | > 50 µM | > 50 µM
Cc1ccc2occ(C(=O)O)c(=O)c2c1 [compound 10] |  |  |  |  | > 50 µM | > 50 µM | > 50 µM | > 50 µM | > 50 µM |  |  | > 50 µM | > 50 µM
NCCOc1no[n+]([O-])c1S(=O)(=O)c1ccccc1 [5a, 4-(2-aminoethoxy)-3-(phenylsulfonyl)-1,2,5-oxadiazole-2-oxide] |  |  |  |  | 27.9 ± 1.23 µM | 21.8 ± 1.35 µM | 29.9 ± 1.47 µM | > 50 µM | 18.9 ± 0.73 µM |  |  | > 50 µM | > 50 µM
O=S(=O)(c1ccccc1)c1c(OCCN2CCNCC2)no[n+]1[O-] [5d, 3-(phenyl-sulfonyl)-4-(2-(piperazin-1-yl)ethoxy)-1,2,5-oxadiazole-2-oxide] |  |  |  |  | > 50 µM | > 50 µM | > 50 µM | > 50 µM | > 50 µM |  |  | > 50 µM | > 50 µM
O=c1[nH]cc(F)c(=O)[nH]1 [5-Fu, fluorouracil, reference compound] |  |  |  |  | 12.6 ± 1.06 µM | 32.6 ± 1.98 µM | 6.86 ± 0.37 µM | 26.7 ± 1.92 µM | 3.94 ± 0.17 µM |  |  | > 50 µM | > 50 µM

Continued, in another order:

IC50 [2] | IC50 [4] | IC50 ([5]; 72 h) | IC50 [6] | IC50 [7] | IC50 ([2]; Homo sapiens) | IC50 ([4]; Homo sapiens) | IC50 ([5]; Homo sapiens, MCF7, 72 h) | IC50 ([6]; Homo sapiens) | Molecule | IC50 [1] | IC50 ([3]; 72 h) | IC50 ([1]; Homo sapiens, PBMC) | IC50 ([3]; L02, 72 h)
7.91 ± 0.4 µM | 8.64 ± 0.58 µM | 15.9 ± 0.66 µM | 4.94 ± 0.25 µM | 9.96 ± 0.67 µM |  |  |  |  | 4-(3-((3-Carboxy-6-methyl-4-oxo-4H-chromen-2-yl)amino)propoxy)-3-(phenylsulfonyl)-1,2,5-oxadiazole 2-oxide [12d] | > 50 µM | 33.6 ± 2.95 µM |  | 
 |  |  |  | > 50 µM | > 50 µM | > 50 µM | > 50 µM | > 50 µM | COc1ccc2occ(C(=O)NCCCOc3no[n+]([O-])c3S(=O)(=O)c3ccccc3)c(=O)c2c1 [13c, 4-(3-(6-Methoxy-4-oxo-4H-chromene-3-carboxamido)propoxy)-3-(phenylsulfonyl)-1,2,5-oxadiazole 2-oxide] |  |  | > 50 µM | > 50 µM
 |  |  |  | 10.6 ± 0.53 µM | 5.67 ± 0.42 µM | 7.93 ± 0.44 µM | 12.8 ± 1.46 µM | 2.98 ± 0.14 µM | Cc1ccc2occ(C(=O)N3CCN(CCOc4no[n+]([O-])c4S(=O)(=O)c4ccccc4)CC3)c(=O)c2c1 [14c, 4-(2-(4-(6-Methyl-4-oxo-4H-chromene-3-carbonyl)piperazin-1-yl)ethoxy)-3-(phenylsulfonyl)-1,2,5-oxadiazole 2-oxide] |  |  | > 50 µM | 41.3 ± 2.58 µM
 |  |  |  | 35 ± 1.25 µM | 9.56 ± 2.37 µM | 12.9 ± 1.02 µM | 16.9 ± 1.29 µM | 4.07 ± 0.39 µM | COc1ccc2oc(N3CCN(CCOc4no[n+]([O-])c4S(=O)(=O)c4ccccc4)CC3)c(C(=O)O)c(=O)c2c1 [15d, 4-(2-(4-(3-Carboxy-6-methoxy-4-oxo-4H-chromen-2-yl)piperazin-1-yl)ethoxy)-3-(phenylsulfonyl)-1,2,5-oxadiazole 2-oxide] |  |  | > 50 µM | > 50 µM
10.6 ± 0.72 µM | 13.2 ± 0.53 µM | 22.1 ± 1.38 µM | 5.89 ± 0.26 µM | 16.8 ± 0.74 µM |  |  |  |  | 4-(2-(6-Methoxy-4-oxo-4H-chromene-3-carboxamido)ethoxy)-3-(phenylsulfonyl)-1,2,5-oxadiazole 2-oxide [13a] | > 50 µM | > 50 µM |  | 
5.38 ± 0.19 µM | 7.87 ± 0.32 µM | 13.8 ± 0.49 µM | 2.75 ± 0.17 µM | 11.7 ± 0.52 µM |  |  |  |  | 4-(2-(4-(3-Carboxy-6-methyl-4-oxo-4H-chromen-2-yl)piperazin-1-yl)ethoxy)-3-(phenlsulfonyl)-1,2,5-oxadiazole 2-oxide [14d] | > 50 µM | 28.9 ± 1.43 µM |  | 
19.9 ± 1.31 µM | 29.6 ± 1.48 µM | > 50 µM | 13.6 ± 0.85 µM | 27.9 ± 1.23 µM |  |  |  |  | 2-((1-(6-Methyl-4-oxo-4H-chromene-3-carboxamido)propan-2-yl)oxy)-3-(phenylsulfonyl)-1,2,5-oxadiazole 2-oxide [14a] | > 50 µM | > 50 µM |  | 
21.5 ± 1.23 µM | 25.4 ± 1.76 µM | > 50 µM | 12.5 ± 0.77 µM | 26.9 ± 1.08 µM |  |  |  |  | 4-(3-(6-Methyl-4-oxo-4H-chromene-3-carboxamido)propoxy)-3-(phenylsulfonyl)-1,2,5-oxadiazole 2-oxide [12c] | > 50 µM | > 50 µM |  | 
22.6 ± 1.39 µM | 26.9 ± 1.4 µM | 24.8 ± 1.28 µM | 13.6 ± 0.76 µM | 26.8 ± 1.22 µM |  |  |  |  | 4-(2-((3-Carboxy-6-methoxy-4-oxo-4H-chromen-2-yl)amino)ethoxy)-3-(phenylsulfonyl)-1,2,5-oxadiazole 2-oxide [13b] | > 50 µM | > 50 µM |  | 
 |  |  |  | > 50 µM | > 50 µM | > 50 µM | > 50 µM | > 50 µM | Cc1ccc2occ(C(=O)NCCOc3no[n+]([O-])c3S(=O)(=O)c3ccccc3)c(=O)c2c1 [12a, (2-(6-Methyl-4-oxo-4H-chromene-3-carboxamido)ethoxy)-3-(phenylsulfonyl)-1,2,5-oxadiazole 2-oxide] |  |  | > 50 µM | > 50 µM
> 50 µM | > 50 µM | > 50 µM | > 50 µM | > 50 µM |  |  |  |  | 4-((1-((3-Carboxy-6-methoxy-4-oxo-4H-chromen-2-yl)amino)propan-2-yl)oxy)-3-(phenylsulfonyl)-1,2,5-oxadiazole 2-oxide [15b] | > 50 µM | > 50 µM |  | 
> 50 µM | > 50 µM | > 50 µM | > 50 µM | > 50 µM |  |  |  |  | 4-(3-((3-Carboxy-6-methoxy-4-oxo-4H-chromen-2-yl)amino)propoxy)-3-(phenylsulfonyl)-1,2,5-oxadiazole 2-oxide [13d] | > 50 µM | > 50 µM |  | 
 |  |  |  | 23.5 ± 1.61 µM | 25.6 ± 1.57 µM | 22.4 ± 1.72 µM | 37.6 ± 2.24 µM | 8.93 ± 0.36 µM | COc1ccc2occ(C(=O)N3CCN(CCOc4no[n+]([O-])c4S(=O)(=O)c4ccccc4)CC3)c(=O)c2c1 [15c, 4-(2-(4-(6-Methoxy-4-oxo-4H-chromene-3-carbonyl)piperazin-1-yl)ethoxy)-3-(phenylsulfonyl)-1,2,5-oxadiazole 2-oxide] |  |  | > 50 µM | > 50 µM
> 50 µM | > 50 µM | > 50 µM | > 50 µM | > 50 µM |  |  |  |  | 4-((1-((3-Carboxy-6-methyl-4-oxo-4H-chromen-2-yl)amino)propan-2-yl)oxy)-3-(phenylsulfonyl)-1,2,5-oxadiazole 2-oxide [14b] | > 50 µM | > 50 µM |  | 
21.3 ± 1.58 µM | 26.9 ± 1.61 µM | 26.6 ± 1.6 µM | 12.5 ± 1.03 µM | 31.4 ± 1.34 µM |  |  |  |  | 4-(2-((3-Carboxy-6-methyl-4-oxo-4H-chromen-2-yl)amino)ethoxy)-3-(phenylsulfonyl)-1,2,5-oxadiazole 2-oxide [12b] | > 50 µM | > 50 µM |  | 
